Results from patent US12187715B2, “Small molecule activators of Tie-2” (EyePoint Pharmaceuticals, Inc., priority 2019, dated 2025).
Values joined by “and” are separate entries in the source; they are usually repeats but may differ in a detail not shown here. Equal entries are not always repeated. “Also recorded” adds a separate entry of the source. Marks after values point to notes of the source that are not given here.

Columns and labels:
[1] = Syringability testing (200 g weight on BD 1-mL syringe plunger, 27 G needle); format: physicochemical; settings: for Syringability of the saturated solutions (in words): undiluted solutions
Protocol: Syringability testing was carried out by applying 200 g of weight on top of a BD 1-mL syringe plunger and measuring the time required to expel 1 mL of the saturated solutions through a 27 G needle. The times are recorded in TABLE 4. At T=0, 43 seconds were required to expel 1 mL of Compound 2, while 8 seconds were required to expel 1 mL of Compound 4. In contrast, approximately 5 minutes were required to expel only 0.1 mL of Compound 3, based on the very high viscosity of the solution relative to that of the other two.
Syringability test results of the 50% diluted solutions (TABLE 5) indicated a slight increase in viscosity (syringability test for water was 10 sec). All three solutions remained easily syringable.

phospho-Akt1 (pAkt) = assay: Phospho-Akt activation assay in human umbilical vein endothelial cells (Western blot); format: cell-based; settings: for Relative potencies for activation of pAkt: HUVECs, 3, 10 and 30 μM
Protocol: The ability of the small molecule analogues as shown in EXAMPLES 1-3 to stimulate production of phospho-Akt1 (pAkt) was tested. Akt plays a critical role in controlling cell survival and apoptosis, and Akt phosphorylation is increased by the activation of Tie-2. Akt activation can be detected by an antibody that recognizes phosphorylation on the serine 473 residue on Akt.
HUVECs were seeded at 500,000 cells/mL in chemically-defined basal media, and supplemented with distinct growth factors (EGM-2). The following growth factors were required for survival and normal phenotypic expression of endothelial characteristics: fetal bovine serum 2%, hydrocortisone, human fibroblast growth factor-B, vascular endothelial growth factor, recombinant insulin growth factor R3, ascorbic acid, human epidermal growth factor, gentamicin sulfate, amphotericin B, and heparin. Cells were derived from one donor, cultivated in 10 cm dishes, and expanded upon reaching 90% confluence. After three passages, the cells were expanded and ready for testing.
The cells were seeded at 25,000 cells/mL in 6-well plates, and covered with 2 mL of complete media. The cells were fed on day 2 of culture with 2 mL of fresh EGM-2 media. 72 hours after plating, the cells were serum starved by rinsing twice with 2 mL of sterile phosphate buffered saline, and then placed at 37° C. for 3 hours in the presence of basal EGM-2 media (1.5 mL/well without growth factors). The serum starvation allowed the cells to become quiescent.
Compounds 2-4 were dissolved in distilled deionized water at the following concentrations: • Compound 2 (Molecular weight: 622.7): 31 mg/ml. • Compound 3 (Molecular weight: 622.7): 26 mg/ml. • Compound 4 (Molecular weight: 636.7): 32 mg/ml.
All compounds were stored at 4° C. […] Stock concentrations of the above molecules were made at a final working concentration of 1 mM. Specific microliter volumes of the working concentration were added to each 6 well plate at the following concentrations: 3, 10, and 30 micromolar (μM). Cells were treated for 30 minutes.
10× cell lysis buffer was diluted fresh with dH2O. The 1× cell lysis buffer contained: 20 mM Tris-HCl (pH 7.5), 150 mM NaCl, 1 mM Na2EDTA, 1 mM EGTA, 1% Triton, 2.5 mM sodium pyrophosphate, 1 mM β-glycerophosphate, 1 mM Na3VO4, 1 μg/ml leupeptin, and 1 mM PMSF. Immediately before use, 1 mM PMSF was prepared by diluting from a stock of 1 M PMSF made up in DMSO. In addition, a 1× concentration of a Halt protease & phosphatase inhibitor cocktail was included. At the end of the 30 minute treatment, the media was discarded from the cell culture wells by shaking out, and the remaining media was aspirated off the wells. Ice-cold lysis buffer was added at 140 μL/well, and the culture was placed on ice or in a cold room for 30 minutes while rocking. Cell lysates were collected using a cell scraper, placed in microfuge tubes, and stored at −80° C. The levels of protein were quantitated using a microtiter plate BCA protein assay.
2× Laemmli sample buffer was added in equal volume to the […] cell lysis buffer, which contained the lysed endothelial cells. The solution was heated at 100° C. for 5 minutes and then sonicated for 10 seconds. After sonication, the lysates were spun by centrifuge at 4° C. for 5 minutes at 17,000 rpm. 70-100 μg of protein calculated from BCA assay prior to addition of 2× Laemmli sample were added per well of an 8% polyacrylamide gel.
Electrophoresis was performed at 150 volts for approximately 90 minutes at room temperature with 1× Laemmli running buffer. The proteins from the gel were transferred to nitrocellulose at 100 volts for 45 minutes on ice.
The nitrocellulose membranes were removed quickly without drying and placed in phosphate buffered saline (pH 7.3) with 1% nonfat dried milk. The membranes were blocked in the milk solution while rocking for 2 hours at room temperature or overnight at 4° C. […]

[2] = Solubility testing in water by portionwise addition until saturation; format: physicochemical; settings: for Amount (g) of compound added until saturation: added portionwise to 10 mL water; for Physical appearance: after portionwise addition to 10 mL water; for Filtration: filtration of the sample attempted after stirring overnight; for solubility at 4 weeks: pH 7, aqueous buffer, 50% dilution with water, adjusted to pH 7, T = 4 weeks; for solubility at 0 weeks: estimated from weight added; for solubility: Conclusions: suspensions stirred overnight, filtered and analyzed by HPLC, initial
Protocol: The solubility of compounds 2-4 was determined by portionwise addition of the compounds to water until saturation was obtained. Water (10 mL) was added to a 20-mL vial. About 100 mg of Compound 2 was added. The suspension was stirred at room temperature for 20 minutes until the contents became a clear solution. Compound 2 (˜100 mg portionwise) was added repeatedly with 30 min stirring time between the additions. Once a suspension was obtained after continuous stirring for 2 hours, the suspension was stirred overnight. The same procedure was used for the suspension preparations of Compound 3 and Compound 4.
After stirring overnight, filtration of each sample was attempted.
An aliquot of the suspension of Compound 2 was filtered through a 0.22 micron inline syringe filter.
About 1 mL of the aqueous solutions prepared above was diluted with water by 50%. The pH of the 50% diluted solutions was adjusted to pH 7 either by 0.1 N HCl or by 0.1 N NaOH. Solubility values for the three compounds in the solutions/suspensions before and after dilution are given in the in TABLE 3.
The solubility of Compounds 2-4 was determined by portionwise addition of the compounds to water until saturation was obtained. After stirring overnight, the suspensions were filtered and analyzed by HPLC. […] The solubility of Compound 3 was >200 mg/mL. The absolute solubility of Compound 3 was not determined because in the course of analysis, the solution of Compound 3 became too viscous to stir. […] The 50% diluted solutions of Compounds 2-4 were not viscous, and the compounds remained in solution for 4 weeks. […] All of the diluted solutions were easily syringable over 4 weeks' time.

[3] = 50% diluted solution, T = 2 week
[4] = 50% diluted solution, T = 3 week
[5] = 50% diluted solution, T = 4 week
[6] = 50% diluted solution, T = 2 day
[7] = 50% diluted solution, T = 3 day
[8] = 50% diluted solution, T = 4 day
[9] = 50% diluted solution, T = 7 day
[10] = saturated (undiluted) solution, T = 0
[11] = saturated (undiluted) solution, T = 1 day
[12] = saturated (undiluted) solution, T = 2 day
[13] = saturated (undiluted) solution, T = 3 day
[14] = water, thermodynamic from solid, Before dilution, T = 0
[15] = water, thermodynamic from solid

| Syringability: time to expel 1 mL [1, 3] | Syringability: time to expel 1 mL [1, 4] | Syringability: time to expel 1 mL [1, 5] | Syringability: time to expel 1 mL [1, 6] | Syringability: time to expel 1 mL [1, 7] | Syringability: time to expel 1 mL [1, 8] | Syringability: time to expel 1 mL [1, 9] | Syringability: time to expel 1 mL [1, 10] | Syringability: time to expel 1 mL [1, 11] | Syringability: time to expel 1 mL [1, 12] | Syringability: time to expel 1 mL [1, 13] | Syringability of the saturated solutions (in words) [1] | Physical state of the preparation ([2]; 50% dilution, T = 4 weeks) | Physical state of the preparation ([2]; Before dilution, T = 0) | Amount (g) of compound added until saturation ([2]; room temperature) | Filtration [2] | solubility at 4 weeks ([2]; water) | solubility at 0 weeks [2, 14] | SMILES | Relative potencies for activation of pAkt (phospho-Akt1 (pAkt)) | Physical appearance [2] | also measured |
| --- | --- | --- | --- | --- | --- | --- | --- | --- | --- | --- | --- | --- | --- | --- | --- | --- | --- | --- | --- | --- | --- |
| 14 s | 11 s | 11 s | 10 s | 15 s | 18 s | 15 s | 43 s | 52 s | 65 s | 58 s | syringable | (solution) *** | (suspension) | 2.53 g and 2.528 g | difficult and Yes | ~125 mg/mL | ~250 mg/mL | COC(=O)N(C)[C@@H](Cc1ccccc1)C(=O)N[C@@H](Cc1ccc(NS(=O)(=O)[O-])cc1)c1csc(-c2cccs2)n1.[Na+] [Compound 2, sodium (4-{(S)-2-{(S)-2-[(methoxycarbonyl)(methyl)amino]-3-phenylpropanamido}-2-[2-(thiophen-2-yl)thiazol-4-yl]ethyl}phenyl)sulfamate] | Compound 2>Compound 4>Compound 3 | formed a suspension; also recorded: Precipitate | pAkt signal above control (phospho-Akt1 (pAkt); HUVECs, 30 μM, 30 minutes treatment): 300%; Levels of pAkt (in words) (phospho-Akt1 (pAkt); HUVECs, sets statement at 30 μM): Noticeable and dose-dependent; Concentration in clear filtrate as share of the concentration of the initial, supersaturated solution ([2]; suspension filtered through 0.22 micron filter after 5 weeks): 25%; solubility at 5 weeks ([2]; water, thermodynamic from solid, Before dilution, T = 5 weeks, room temperature): 49.5 mg/mL; solubility [2, 15]: ~200 mg/mL |
| 13 s | 13 s | 14 s | 12 s | 14 s | 15 s | 12 s | 8 s | 12 s | 15 s | 12 s | syringable | (solution) | (solution) | 0.624 g | proceeded readily and Yes | 31 mg/mL | 62 mg/mL | COC(=O)N(C)[C@@H](Cc1ccccc1)C(=O)N(C)[C@@H](Cc1ccc(NS(=O)(=O)[O-])cc1)c1csc(-c2cccs2)n1.[Na+] [Compound 4, sodium (4-{(S)-2-{(S)-2-[(methoxycarbonyl)(methyl)amino]-N-methyl-3-phenylpropanamido}-2-[2-(thiophen-2-yl)thiazol-4-yl]ethyl}phenyl)sulfamate] | Compound 2>Compound 4>Compound 3 | formed a suspension; also recorded: Precipitate | Syringability: time to expel 1 mL ([1]; saturated (undiluted) solution, T = 2 week): 13 s; Syringability: time to expel 1 mL ([1]; saturated (undiluted) solution, T = 3 week): 12 s; Syringability: time to expel 1 mL ([1]; saturated (undiluted) solution, T = 4 week): 13 s; Syringability: time to expel 1 mL ([1]; saturated (undiluted) solution, T = 4 day): 13 s; Syringability: time to expel 1 mL ([1]; saturated (undiluted) solution, T = 5 day): 14 s; Syringability: time to expel 1 mL ([1]; saturated (undiluted) solution, T = 6 day): 14 s; Solubility value in water ([2]; Before dilution, T = 5 weeks, room temperature): No change*; solubility [2, 15]: ~58 mg/mL |
